Reference: patent US20070093548A1 (Wyeth, priority 2005, published 2007)
Like-named read-outs stand apart in the source and are kept apart here.

Tests used:
[1] = test system: alkaline phosphatase activity in T47D cells; assay: T47D Cell Alkaline Phosphatase Assay; assay type: cell-based, human; settings: antagonist mode, in the presence of 1 nM progesterone, read-out: Example 18A 'T47D Cell Alkaline Phosphatase Assay' IC50
Procedure: A. Effects of Progestins and Antiprogestins on Alkaline Phosphatase Activity in T47D Cells—T47D Cell Alkaline Phosphatase Assay
The purpose of this assay is to identify progestins or antiprogestins by determining a compound's effect on alkaline phosphatase activity in T47D cells. The materials and methods are as follows.
Culture medium: DMEM:F12 (1:1) (GIBCO, BRL) supplemented with 5% (v/v) charcoal stripped fetal bovine serum (not heat-inactivated), 100 U/ml penicillin, 100 ug/ml streptomycin, and 2 mM GlutaMax (GIBCO, BRL).
Alkaline phosphatase assay buffer:
I. 0.1M Tris-HCl, pH 9.8, containing 0.2% Triton X-100
II. 0.1M Tris-HCl, pH 9.8, containing 4 mM p-nitrophenyl phosphate (Sigma).
Frozen T47D cells are thawed in a 37° C. water bath and diluted to 280,000 cells/ml in culture medium. To each well in a 96-well plate (Falcon, Becton Dickinson Labware), 180 μl of diluted cell suspension is added. 20 μl of reference or test compounds diluted in the culture medium is then added to each well. […] The cells are incubated at 37° C. in a 5% CO2/humidified atmosphere for 24 hours. NOTE: For high throughput screening, one concentration of each compound is tested at 0.3 μg/ml. Based on an average molecular weight of 300 g/mol for the compounds in the library, the concentration is approximately 1 μM.
At the end of treatment, the medium is removed from the plate. 50 μl of assay buffer I is added to each well. The plates are shaken in a titer plate shaker for 15 min. Then 150 μl of assay buffer II is added to each well.
Subsequent dose response data for screening hits will be evaluated as described below. Analysis of dose-response data. For reference and test compounds, a dose response curve is generated for dose (X-axis) vs. the rate of enzyme reaction (slope) (Y-axis). Square root-transformed data are used for analysis of variance and nonlinear dose response curve fitting for both agonist and antagonist modes. Huber weighting is used to downweight the effects of outliers. EC50 or IC50 values are calculated from the retransformed values.
Percent (%) of induction for agonists at the tested concentrations. […] The default concentration is in the nM range.

[2] = target: T1, progesterone receptor (PR) (Homo sapiens, UniProt P06401); assay: Progesterone Receptor Whole Cell Competition Binding Assay Using T47D Cells; settings: 3H-progesterone 3 nM, read-out: Example 18B 'T47D PR whole cell binding Assay' IC50
T1 construct: in live, intact (whole) cells, using the human breast carcinoma T47D cell line; endogenous in cells; host or cells: T47D human breast carcinoma cells (live, intact)
T1 sequence (P06401 1-933): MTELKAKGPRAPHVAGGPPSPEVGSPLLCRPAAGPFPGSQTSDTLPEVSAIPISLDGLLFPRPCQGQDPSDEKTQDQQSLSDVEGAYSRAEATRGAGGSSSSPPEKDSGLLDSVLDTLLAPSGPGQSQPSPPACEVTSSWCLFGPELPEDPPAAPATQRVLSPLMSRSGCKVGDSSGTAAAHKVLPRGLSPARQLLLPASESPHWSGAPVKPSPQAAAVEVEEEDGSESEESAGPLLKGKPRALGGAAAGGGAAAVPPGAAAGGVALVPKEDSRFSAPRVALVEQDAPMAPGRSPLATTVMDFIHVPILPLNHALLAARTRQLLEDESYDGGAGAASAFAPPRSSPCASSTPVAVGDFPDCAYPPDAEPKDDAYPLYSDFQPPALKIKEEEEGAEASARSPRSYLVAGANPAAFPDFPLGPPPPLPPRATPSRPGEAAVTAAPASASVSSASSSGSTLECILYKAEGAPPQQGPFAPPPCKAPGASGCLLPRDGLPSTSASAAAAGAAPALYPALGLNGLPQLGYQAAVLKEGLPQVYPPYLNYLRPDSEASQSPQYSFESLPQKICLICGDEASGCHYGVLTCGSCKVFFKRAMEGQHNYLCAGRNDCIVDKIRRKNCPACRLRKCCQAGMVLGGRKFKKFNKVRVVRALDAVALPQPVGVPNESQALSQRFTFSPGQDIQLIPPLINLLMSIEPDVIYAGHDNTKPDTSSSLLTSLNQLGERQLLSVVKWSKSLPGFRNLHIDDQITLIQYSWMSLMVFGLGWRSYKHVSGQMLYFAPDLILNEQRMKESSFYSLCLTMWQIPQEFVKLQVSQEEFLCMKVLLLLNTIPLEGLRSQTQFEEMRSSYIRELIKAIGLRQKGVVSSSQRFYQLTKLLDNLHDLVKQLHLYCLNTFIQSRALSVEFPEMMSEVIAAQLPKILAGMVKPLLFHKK
Procedure: 1. Culture medium: 5% RC: phenol red free DMEM:F12 (1:1) (GIBCO, BRL) supplemented with 5% (v/v) charcoal stripped fetal bovine serum (not heat-inactivated), 100 U/ml penicillin, 100 ug/ml streptomycin, and 2 mM GlutaMax (GIBCO, BRL).
2. T47D cell culture: T47D cells are maintained in 10% RC media at 37° C. in a 5% CO2/humidified atmosphere and need to be split twice weekly for proper response. Cells are plated in 10% RC the day before binding assay at 50,000 cells per well in the white, clear bottom plates purchased through VWR or Perkin Elmer.
Cells plated the day prior to the assay in white clear bottom plates are used. A master compound plate is set up containing control and test compounds at 20× final desired concentration for the competition binding. A typical dose range of 20× concentrations are (in nM); 200,000; 20,000; 6000; 2000; 600; 200; 20; and 2. Final concentrations are then (in nM); 10,000; 1000; 300; 100; 30; 10; 1; 0.1.
Media on cells is replaced with 180 μl of 5% RC. […] Compounds are incubated for 3 hrs at 37° C. […] Following incubation, media is carefully removed and cells are washed 3× with 200 μl 5% RC each wash. 50 μl of liquid scintillation cocktail is added and the plates are shaken vigorously for a minimum of 15 minutes.
Square root-transformed data are used for analysis of variance and calculation of IC50 SAS software (SAS Institute, Inc.) is used for all the statistical analysis.

[3] = test system: alkaline phosphatase activity in T47D cells; assay: T47D Cell Alkaline Phosphatase Assay; assay type: cell-based; settings: Homo sapiens, read-out: Example 18A 'T47D Cell Alkaline Phosphatase Assay' Inhibition (%)

Row | IC50 [2] | IC50 ([1]; Homo sapiens, T47D, 24 h) | melting point | Structure (SMILES) | other results
1 | 41.5 nM | – | – | CCC(C)c1c(O)ccc2c1oc1ccc(C#N)cc12 (single isomer, unassigned; (+)) [Example 14, (+)-6-sec-butyl-7-hydroxydibenzo[b,d]furan-2-carbonitrile] | IC50 [1]: 22 nM
2 | – | 50 nM | – | N#Cc1ccc2oc3c(C4CCCC4)c(O)ccc3c2c1 [Example 11, 6-cyclopentyl-7-hydroxydibenzo[b,d]furan-2-carbonitrile] | –
3 | – | – | 206 to 208 °C | COc1cc2oc3ccc(C#N)cc3c2cc1F [Example 7, 8-fluoro-7-methoxydibenzo[b,d]furan-2-carbonitrile] | inhibition at 3 µM [3]: 65%
4 | 81.2 nM | – | – | CCC(C)c1c(O)ccc2c1oc1ccc(C#N)cc12 (single isomer, unassigned; (-)) [Example 15, (−)-6-sec-butyl-7-hydroxydibenzo[b,d]furan-2-carbonitrile] | IC50 [1]: 148 nM
5 | 21.1 nM | 28 nM | 180 to 182 °C | CC(C)c1c(O)ccc2c1oc1ccc(C#N)cc12 [Example 10, 7-hydroxy-6-isopropyldibenzo[b,d]furan-2-carbonitrile] | –
6 | – | – | – | CCC(C)c1c(OC)ccc2c1oc1ccc(C#N)cc12 (single isomer, unassigned; (-)) [Example 17, (−)-6-sec-butyl-7-methoxydibenzo[b,d]furan-2-carbonitrile] | IC50 [1]: 30 nM
7 | 36.7 nM | 19 nM | 206 to 207 °C | CCC(C)c1c(O)ccc2c1oc1ccc(C#N)cc12 (racemic) [Example 13, 6-sec-butyl-7-hydroxydibenzo[b,d]furan-2-carbonitrile] | –
8 | – | – | 270 °C (dec.) | N#Cc1ccc2oc3c(Br)c(O)c(F)cc3c2c1 [Example 3, 6-bromo-8-fluoro-7-hydroxydibenzo[b,d]furan-2-carbonitrile] | –
9 | – | 48 nM | – | COc1ccc2c(oc3ccc(C#N)cc32)c1C(C)C [Example 9, 6-isopropyl-7-methoxydibenzo[b,d]furan-2-carbonitrile] | –
10 | – | – | – | CCC(C)c1c(OC)ccc2c1oc1ccc(C#N)cc12 (single isomer, unassigned; (+)) [Example 16, (+)-6-sec-butyl-7-methoxydibenzo[b,d]furan-2-carbonitrile] | IC50 [1]: 13 nM
11 | – | 259 nM | – | COc1ccc2c(c1)oc1ccc(C#N)cc12 [Example 1, 7-methoxydibenzo[b,d]furan-2-carbonitrile] | –
12 | – | – | – | N#Cc1ccc2oc3c(-c4ccccc4F)c(O)c(F)cc3c2c1 [Example 8, 8-fluoro-6-(2-fluorophenyl)-7-hydroxydibenzo[b,d]furan-2-carbonitrile] | inhibition at 3 µM [3]: 40%
13 | – | – | – | Cc1ccccc1-c1c(O)c(F)cc2c1oc1ccc(C#N)cc12 [Example 4, 8-fluoro-7-hydroxy-6-(2-methylphenyl)dibenzo[b,d]furan-2-carbonitrile] | inhibition at 3 µM [3]: 50%
14 | – | 534 nM | 270 to 271 °C | N#Cc1ccc2oc3cc(O)ccc3c2c1 [Example 2, 7-hydroxydibenzo[b,d]furan-2-carbonitrile] | –
15 | 59.7 nM | 18.5 nM | 80 to 82 °C | CCC(C)c1c(OC)ccc2c1oc1ccc(C#N)cc12 (racemic) [Example 12, 6-sec-butyl-7-methoxydibenzo[b,d]furan-2-carbonitrile] | –
16 | – | – | 270 °C (dec.) | N#Cc1ccc2oc3cc(O)c(F)cc3c2c1 [Example 6, 8-fluoro-7-hydroxydibenzo[b,d]furan-2-carbonitrile] | –
